Assay results from patent US20250346585A1 (Alexion Pharmaceuticals, Inc., priority 2022, published 2025).
Read-outs that look alike come from different tables or passages of the source.

Target: Human complement C1s enzyme (Homo sapiens (Human), UniProt P09871)
Assay: Human C1s enzyme assay
Assay type: biochemical
Settings: read-out: IC50 (Stars)
Procedure, shortened: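 IC50 derived by nonlinear regression of rate versus concentration, with rate taken from A405 kinetics (30 s intervals, 30 min) after adding 100 μM each Z-L-Lys-SBzl and DTNB. C1s from human serum, 1.16 nM, exposed to compound for 5 min at RT beforehand; buffer 50 mM Tris, 1 M NaCl, pH 7.5.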

[1] = Human complement C1s enzyme 1.16 nM, substrate Z-L-Lys-SBzl 100 μM, assay of Example 3
[2] = Human C1s enzyme assay of Example 3
[3] = Human complement C1s enzyme 1.16 nM, substrate Z-L-Lys-SBzl, assay of Example 3

Chain of Human complement C1s enzyme (P09871 438-688 limits assumed): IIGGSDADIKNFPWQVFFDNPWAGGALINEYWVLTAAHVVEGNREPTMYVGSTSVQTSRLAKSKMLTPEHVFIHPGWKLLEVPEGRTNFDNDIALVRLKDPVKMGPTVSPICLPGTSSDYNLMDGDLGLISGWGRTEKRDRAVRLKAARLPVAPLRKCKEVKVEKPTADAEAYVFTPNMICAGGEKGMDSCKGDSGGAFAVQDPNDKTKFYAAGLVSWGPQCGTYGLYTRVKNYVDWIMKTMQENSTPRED
Chain of Human complement C1s enzyme (P09871 16-437 partner limits assumed): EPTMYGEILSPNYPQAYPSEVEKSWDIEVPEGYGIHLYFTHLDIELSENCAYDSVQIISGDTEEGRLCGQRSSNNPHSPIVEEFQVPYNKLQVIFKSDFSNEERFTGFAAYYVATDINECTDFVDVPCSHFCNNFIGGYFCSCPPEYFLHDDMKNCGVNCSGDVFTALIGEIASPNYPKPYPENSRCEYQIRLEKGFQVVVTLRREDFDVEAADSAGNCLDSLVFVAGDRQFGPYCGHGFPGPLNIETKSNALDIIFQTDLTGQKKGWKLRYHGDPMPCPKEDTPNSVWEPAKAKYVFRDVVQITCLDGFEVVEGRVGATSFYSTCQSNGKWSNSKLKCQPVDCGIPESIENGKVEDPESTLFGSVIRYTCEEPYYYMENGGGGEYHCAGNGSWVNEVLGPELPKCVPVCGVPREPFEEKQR

Row | Compound | IC50 [1] [nM] | IC50 [2] [nM] | other results
1 | C[C@@H](NC(=O)[C@@H]1C[C@](F)(CF)CN1C(=O)CNC(=O)c1cccc(-c2ccc(F)cc2)c1)c1cc(C(=N)N)cs1 [Compound 329, (2S,4R)—N—((R)-1-(4-carbamimidoylthiophen-2-yl)ethyl)-4-fluoro-1-((4′-fluoro-[1,1′-biphenyl]-3-carbonyl)glycyl)-4-(fluoromethyl)pyrrolidine-2-carboxamide] | < 100 | – | –
2 | COC[C@@]1(F)C[C@@H](C(=O)N[C@H](C)c2cc(C(=N)N)cs2)N(C(=O)CNC(=O)c2cccc(-c3ccc(F)cc3)c2)C1 [Compound 364, (2S,4R)—N—((R)-1-(4-carbamimidoylthiophen-2-yl)ethyl)-4-fluoro-1-((4′-fluoro-[1,1′-biphenyl]-3-carbonyl)glycyl)-4-(methoxymethyl)pyrrolidine-2-carboxamide] | < 100 | – | –
3 | C[C@@H](NC(=O)[C@@H]1CC2(CN1C(=O)CNC(=O)c1ccc3c(c1)-c1ccccc1C3(F)F)OCCO2)c1cc(-c2cn[nH]n2)cs1 [Compound 152, (S)—N—((R)-1-(4-(2H-1,2,3-triazol-4-yl)thiophen-2-yl)ethyl)-7-((9,9-difluoro-9H-fluorene-3-carbonyl)glycyl)-1,4-dioxa-7-azaspiro[4.4]nonane-8-carboxamide] | – | > 1000 | –
4 | CC1(C)c2ccccc2-c2cc(C(=O)NCC(=O)N3C[C@@](F)(CF)C[C@H]3C(=O)N[C@H](CO)c3cc(C(=N)N)cs3)ccc21 [Compound 401, (2S,4R)—N—((R)-1-(4-carbamimidoylthiophen-2-yl)-2-hydroxyethyl)-1-((9,9-dimethyl-9H-fluorene-3-carbonyl)glycyl)-4-fluoro-4-(fluoromethyl)pyrrolidine-2-carboxamide] | – | – | IC50 [3]: < 100 nM
5 | C[C@@H](NC(=O)[C@@H]1C[C@@H](C(F)(F)F)CN1C(=O)CNC(=O)c1ccc2c(c1)-c1ccccc1C2(F)F)c1cc(C(=N)N)cs1 [Compound 324, (2S,4R)—N—((R)-1-(4-carbamimidoylthiophen-2-yl)ethyl)-1-((9,9-difluoro-9H-fluorene-3-carbonyl)glycyl)-4-(trifluoromethyl)pyrrolidine-2-carboxamide] | < 100 | – | –
6 | C[C@@H](NC(=O)[C@@H]1C[C@](F)(CN(C)C)CN1C(=O)CNC(=O)c1ccc2c(c1)-c1ccccc1C2(F)F)c1cc(C(=N)N)cs1 [Compound 36, (2S,4S)—N—((R)-1-(4-carbamimidoylthiophen-2-yl)ethyl)-1-((9,9-difluoro-9H-fluorene-3-carbonyl)glycyl)-4-((dimethylamino)methyl)-4-fluoropyrrolidine-2-carboxamide] | – | < 100 | –
7 | C[C@@H](NC(=O)[C@@H]1CC2(CN1C(=O)CN1Cc3ccc(-c4ccc(F)cc4F)cc3C1=O)OCCO2)c1cc(C(=N)N)cs1 [Compound 346, (S)—N—((R)-1-(4-carbamimidoylthiophen-2-yl)ethyl)-7-(2-(6-(2,4-difluorophenyl)-1-oxoisoindolin-2-yl)acetyl)-1,4-dioxa-7-azaspiro[4.4]nonane-8-carboxamide] | < 100 | – | –
8 | COC(=O)/N=C(/N)c1csc([C@@H](C)NC(=O)[C@@H]2C[C@](F)(CF)CN2C(=O)CNC(=O)c2ccc(Oc3ccc(F)cc3)cc2)c1 [Compound 233, methyl ((E)-amino(5-((R)-1-((2S,4R)-4-fluoro-4-(fluoromethyl)-1-((4-(4-fluorophenoxy)benzoyl)glycyl)pyrrolidine-2-carboxamido)ethyl)thiophen-3-yl)methylene)carbamate] | < 100 | – | –
9 | C[C@@H](NC(=O)[C@@H]1CC2(CN1C(=O)CNC(=O)c1ccc3c(c1)-c1ccccc1C3(C)C)OCCO2)c1cc(C(=N)N)cs1 [Compound 94, (S)—N—((R)-1-(4-carbamimidoylthiophen-2-yl)ethyl)-7-((9,9-dimethyl-9H-fluorene-3-carbonyl)glycyl)-1,4-dioxa-7-azaspiro[4.4]nonane-8-carboxamide] | – | < 100 | –
10 | N=C(N)c1csc(CNC(=O)[C@@H]2CC3(CN2C(=O)CN2CCc4cc(-c5ccc(F)cc5)ccc4C2=O)OCCO3)c1 [Compound 255, (S)—N-((4-carbamimidoylthiophen-2-yl)methyl)-7-(2-(6-(4-fluorophenyl)-1-oxo-3,4-dihydroisoquinolin-2(1H)-yl)acetyl)-1,4-dioxa-7-azaspiro[4.4]nonane-8-carboxamide] | > 1000 | – | –
11 | C[C@@H](NC(=O)[C@@H]1C[C@@H](OC(F)F)CN1C(=O)CNC(=O)c1cccc(-c2ccc(F)cc2)c1)c1cc(C(=N)N)cs1 [Compound 330, (2S,4R)—N—((R)-1-(4-carbamimidoylthiophen-2-yl)ethyl)-4-(difluoromethoxy)-1-((4′-fluoro-[1,1′-biphenyl]-3-carbonyl)glycyl)pyrrolidine-2-carboxamide] | < 100 | – | –
12 | N=C(N)c1csc([C@@H](NC(=O)[C@@H]2CC3(CN2C(=O)CNC(=O)c2ccc4c(c2)-c2ccccc2C4(F)F)OCCO3)C(F)(F)F)c1 (relative stereo) [Compound 275, (S)—N—((S*)-1-(4-carbamimidoylthiophen-2-yl)-2,2,2-trifluoroethyl)-7-((9,9-difluoro-9H-fluorene-3-carbonyl)glycyl)-1,4-dioxa-7-azaspiro[4.4]nonane-8-carboxamide] | < 100 | – | –
13 | N=C(N)c1csc(CNC(=O)[C@@H]2C[C@](F)(CF)CN2C(=O)CNC(=O)c2ccc3c(c2)-c2ccccc2C3(F)F)c1 [Compound 52, (2S,4R)—N-((4-carbamimidoylthiophen-2-yl)methyl)-1-((9,9-difluoro-9H-fluorene-3-carbonyl)glycyl)-4-fluoro-4-(fluoromethyl)pyrrolidine-2-carboxamide] | – | < 100 | –
14 | C[C@@H](NC(=O)[C@@H]1CC2(CN1C(=O)CNC(=O)c1ccc3c(c1)-c1ccccc1C3O)OCCO2)c1cc(C(=N)N)cs1 (stereo partly drawn) [Compound 162, (8S)—N—((R)-1-(4-carbamimidoylthiophen-2-yl)ethyl)-7-((9-hydroxy-9H-fluorene-3-carbonyl)glycyl)-1,4-dioxa-7-azaspiro[4.4]nonane-8-carboxamide] | – | < 100 | –
15 | C[C@@H](NC(=O)[C@@H]1CC(c2ncco2)CN1C(=O)CNC(=O)c1ccc2c(c1)-c1ccccc1C2(F)F)c1cc(C(=N)N)cs1 (stereo partly drawn) [Compound 416, (S)—N—((R)-1-(4-carbamimidoylthiophen-2-yl)ethyl)-1-((9,9-difluoro-9H-fluorene-3-carbonyl)glycyl)-4-(oxazol-2-yl)pyrrolidine-2-carboxamide] | – | – | IC50 [3]: < 100 nM
16 | CO[C@@H]1C[C@@H](C(=O)N[C@H](CO)c2cc(C(=N)N)cs2)N(C(=O)CNC(=O)c2ccc3c(c2)-c2ccccc2C3(F)F)C1 [Compound 407, (2S,4R)—N—((R)-1-(4-carbamimidoylthiophen-2-yl)-2-hydroxyethyl)-1-((9,9-difluoro-9H-fluorene-3-carbonyl)glycyl)-4-methoxypyrrolidine-2-carboxamide] | – | – | IC50 [3]: < 100 nM
17 | Cc1ccccc1[C@H]1C[C@@H](C(=O)N[C@H](C)c2cc(C(=N)N)cs2)N(C(=O)CNC(=O)c2ccc(Oc3ccc(F)cc3)cc2)C1 [Compound 59, (2S,4R)—N—((R)-1-(4-carbamimidoylthiophen-2-yl)ethyl)-1-((4-(4-fluorophenoxy)benzoyl)glycyl)-4-(o-tolyl)pyrrolidine-2-carboxamide] | – | < 100 | –
18 | C[C@@H](NC(=O)[C@@H]1C[C@](F)(CF)CN1C(=O)CNC(=O)c1ccc(C(F)(F)c2ccccc2)cc1)c1cc(C(=N)N)cs1 [Compound 154, (2S,4R)—N—((R)-1-(4-carbamimidoylthiophen-2-yl)ethyl)-1-((4-(difluoro(phenyl)methyl)benzoyl)glycyl)-4-fluoro-4-(fluoromethyl)pyrrolidine-2-carboxamide] | – | < 100 | –
19 | N=C(N)c1csc(CCNC(=O)[C@@H]2CC3(CN2C(=O)CNC(=O)c2ccc4c(c2)-c2ccccc2C4(F)F)OCCO3)c1 [Compound 251, (S)—N-(2-(4-carbamimidoylthiophen-2-yl)ethyl)-7-((9,9-difluoro-9H-fluorene-3-carbonyl)glycyl)-1,4-dioxa-7-azaspiro[4.4]nonane-8-carboxamide] | < 100 | – | –
20 | COC[C@@]1(F)C[C@@H](C(=O)N[C@H](C)c2cc(C(=N)N)cs2)N(C(=O)CNC(=O)c2ccc3c(c2)S(=O)(=O)c2ccccc2-3)C1 [Compound 350, (2S,4R)—N—((R)-1-(4-carbamimidoylthiophen-2-yl)ethyl)-1-((5,5-dioxidodibenzo[b,d]thiophene-3-carbonyl)glycyl)-4-fluoro-4-(methoxymethyl) pyrrolidine-2-carboxamide] | < 100 | – | –
21 | C[C@@H](NC(=O)[C@@H]1C[C@]2(COCCCN)C[C@@H]2N1C(=O)CNC(=O)c1ccc2c(c1)-c1ccccc1C2(F)F)c1cc(C(=N)N)cs1 [Compound 382, (1S,3S,5R)-5-((3-aminopropoxy)methyl)-N—((R)-1-(4-carbamimidoylthiophen-2-yl)ethyl)-2-((9,9-difluoro-9H-fluorene-3-carbonyl)glycyl)-2-azabicyclo[3.1.0]hexane-3-carboxamide] | < 100 | – | –
22 | CCCCCCOC(=O)/N=C(/N)c1csc([C@@H](C)NC(=O)[C@@H]2C[C@](F)(CF)CN2C(=O)CNC(=O)c2ccc3c(c2)-c2ccccc2C3(F)F)c1 [Compound 253, hexyl ((E)-amino(5-((R)-1-((2S,4R)-1-((9,9-difluoro-9H-fluorene-3-carbonyl)glycyl)-4-fluoro-4-(fluoromethyl)pyrrolidine-2-carboxamido)ethyl)thiophen-3-yl)methylene)carbamate] | < 100 | – | –
23 | C[C@@H](NC(=O)[C@@H]1C[C@]2(Cn3ccnn3)C[C@@H]2N1C(=O)CNC(=O)c1ccc2c(c1)-c1ccccc1C2(F)F)c1cc(C(=N)N)cs1 [Compound 274, (1S,3S,5S)-5-((1H-1,2,3-triazol-1-yl)methyl)-N—((R)-1-(4-carbamimidoylthiophen-2-yl)ethyl)-2-((9,9-difluoro-9H-fluorene-3-carbonyl)glycyl)-2-azabicyclo[3.1.0]hexane-3-carboxamide] | < 100 | – | –
